Data from PubChem BioAssay (NCI).
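1) Cells in 96-well plates. 2) Compound, 48 h, 5 concentrations. 3) Linear interpolation between surrounding doses. 4) Unreached endpoint = highest concentration. The concentration for 50% growth inhibition is given as GI50. TGI: concentration producing complete growth inhibition.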

How the values were obtained:
Test in all cases: NCI-60 cell line screen, 48 h
786-0 renal = test system: 786-0 renal
A498 renal = test system: A498 renal
A549 NSCLC = test system: A549 NSCLC
ACHN renal = test system: ACHN renal
BT-549 breast = test system: BT-549 breast
CAKI-1 renal = test system: CAKI-1 renal
CCRF-CEM leukemia = test system: CCRF-CEM leukemia
COLO 205 colon = test system: COLO 205 colon
DU-145 prostate = test system: DU-145 prostate
EKVX NSCLC = test system: EKVX NSCLC
HCC-2998 colon = test system: HCC-2998 colon
HCT-116 colon = test system: HCT-116 colon
HCT-15 colon = test system: HCT-15 colon
HL-60(TB) leukemia = test system: HL-60(TB) leukemia
HOP-62 NSCLC = test system: HOP-62 NSCLC
HOP-92 NSCLC = test system: HOP-92 NSCLC
HS 578T breast = test system: HS 578T breast
HT29 colon = test system: HT29 colon
IGROV1 ovarian = test system: IGROV1 ovarian
K-562 leukemia = test system: K-562 leukemia
KM12 colon = test system: KM12 colon
LOX IMVI melanoma = test system: LOX IMVI melanoma
M14 melanoma = test system: M14 melanoma
MALME-3M melanoma = test system: MALME-3M melanoma
MCF7 breast = test system: MCF7 breast
MDA-MB-231 breast = test system: MDA-MB-231 breast
MDA-MB-435 = test system: MDA-MB-435
MOLT-4 leukemia = test system: MOLT-4 leukemia
NCI-H226 lung = test system: NCI-H226 lung
NCI-H23 lung = test system: NCI-H23 lung
NCI-H460 lung = test system: NCI-H460 lung
NCI-H522 lung = test system: NCI-H522 lung
NCI/ADR-RES ovarian = test system: NCI/ADR-RES ovarian
OVCAR-3 ovarian = test system: OVCAR-3 ovarian
OVCAR-4 ovarian = test system: OVCAR-4 ovarian
OVCAR-5 ovarian = test system: OVCAR-5 ovarian
OVCAR-8 ovarian = test system: OVCAR-8 ovarian
PC-3 prostate = test system: PC-3 prostate
RPMI-8226 leukemia = test system: RPMI-8226 leukemia
RXF 393 renal = test system: RXF 393 renal
SF-268 CNS = test system: SF-268 CNS
SF-295 CNS = test system: SF-295 CNS
SF-539 CNS = test system: SF-539 CNS
SK-MEL-2 melanoma = test system: SK-MEL-2 melanoma
SK-MEL-28 melanoma = test system: SK-MEL-28 melanoma
SK-MEL-5 melanoma = test system: SK-MEL-5 melanoma
SK-OV-3 ovarian = test system: SK-OV-3 ovarian
SN12C renal = test system: SN12C renal
SNB-19 CNS = test system: SNB-19 CNS
SNB-75 CNS = test system: SNB-75 CNS
SR leukemia = test system: SR leukemia
SW-620 colon = test system: SW-620 colon
T-47D breast = test system: T-47D breast
TK-10 renal = test system: TK-10 renal
U251 CNS = test system: U251 CNS
UACC-257 melanoma = test system: UACC-257 melanoma
UACC-62 melanoma = test system: UACC-62 melanoma
UO-31 renal = test system: UO-31 renal

For `O=S(=O)(O)c1ccc2cc3nn(-c4ccc(/C=C/c5ccc(-n6nc7cc8ccc(S(=O)(=O)O)cc8cc7n6)cc5S(=O)(=O)O)c(S(=O)(=O)O)c4)nc3cc2c1`, the GI50 (786-0 renal) was > 100 µM, the TGI (786-0 renal) was > 100 µM and the GI50 (A498 renal) was > 100 µM. For the same compound, the TGI (A498 renal) was > 100 µM, the GI50 (A549 NSCLC) was 41.7 µM and the TGI (A549 NSCLC) was > 100 µM. For the same compound, the GI50 (ACHN renal) was 81.6 µM, the TGI (ACHN renal) was > 100 µM and the GI50 (BT-549 breast) was > 100 µM. For the same compound, the TGI (BT-549 breast) was > 100 µM, the GI50 (CAKI-1 renal) was > 100 µM and the TGI (CAKI-1 renal) was > 100 µM. For the same compound, the GI50 (CCRF-CEM leukemia) was 30.8 µM, the TGI (CCRF-CEM leukemia) was > 100 µM and the GI50 (COLO 205 colon) was 74 µM. The TGI (COLO 205 colon) was > 100 µM, the GI50 (DU-145 prostate) was > 100 µM and the TGI (DU-145 prostate) was > 100 µM. For the same compound, the GI50 (EKVX NSCLC) was 95.2 µM, the TGI (EKVX NSCLC) was > 100 µM and the GI50 (HCC-2998 colon) was 73.8 µM. For the same compound, the TGI (HCC-2998 colon) was > 100 µM, the GI50 (HCT-116 colon) was 23.6 µM and the TGI (HCT-116 colon) was > 100 µM. The GI50 (HCT-15 colon) was 6.21 µM, the TGI (HCT-15 colon) was > 100 µM and the GI50 (HL-60(TB) leukemia) was 31.9 µM. For the same compound, the TGI (HL-60(TB) leukemia) was > 100 µM, the GI50 (HOP-62 NSCLC) was > 100 µM and the TGI (HOP-62 NSCLC) was > 100 µM. The GI50 (HOP-92 NSCLC) was 88.7 µM, the TGI (HOP-92 NSCLC) was > 100 µM and the GI50 (HS 578T breast) was > 100 µM. The TGI (HS 578T breast) was > 100 µM, the GI50 (HT29 colon) was 59.1 µM and the TGI (HT29 colon) was > 100 µM. The GI50 (IGROV1 ovarian) was 27 µM, the TGI (IGROV1 ovarian) was > 100 µM and the GI50 (K-562 leukemia) was 61 µM. For the same compound, the TGI (K-562 leukemia) was > 100 µM, the GI50 (KM12 colon) was 30.4 µM and the TGI (KM12 colon) was > 100 µM. For the same compound, the GI50 (LOX IMVI melanoma) was 16.3 µM, the TGI (LOX IMVI melanoma) was > 100 µM and the GI50 (M14 melanoma) was 44.5 µM. For the same compound, the TGI (M14 melanoma) was > 100 µM, the GI50 (MALME-3M melanoma) was > 100 µM and the TGI (MALME-3M melanoma) was > 100 µM. The GI50 (MCF7 breast) was > 100 µM, the TGI (MCF7 breast) was > 100 µM and the GI50 (MDA-MB-231 breast) was 37 µM. The TGI (MDA-MB-231 breast) was > 100 µM, the GI50 (MDA-MB-435) was > 100 µM and the TGI (MDA-MB-435) was > 100 µM. The GI50 (MOLT-4 leukemia) was 12.2 µM, the TGI (MOLT-4 leukemia) was 81.7 µM and the GI50 (NCI-H226 lung) was > 100 µM. The TGI (NCI-H226 lung) was > 100 µM, the GI50 (NCI-H23 lung) was > 100 µM and the TGI (NCI-H23 lung) was > 100 µM. The GI50 (NCI-H460 lung) was 50.9 µM, the TGI (NCI-H460 lung) was > 100 µM and the GI50 (NCI-H522 lung) was 78.4 µM. For the same compound, the TGI (NCI-H522 lung) was > 100 µM, the GI50 (NCI/ADR-RES ovarian) was > 100 µM and the TGI (NCI/ADR-RES ovarian) was > 100 µM. For the same compound, the GI50 (OVCAR-3 ovarian) was > 100 µM, the TGI (OVCAR-3 ovarian) was > 100 µM and the GI50 (OVCAR-4 ovarian) was > 100 µM. The TGI (OVCAR-4 ovarian) was > 100 µM, the GI50 (OVCAR-5 ovarian) was 62.5 µM and the TGI (OVCAR-5 ovarian) was > 100 µM. The GI50 (OVCAR-8 ovarian) was > 100 µM, the TGI (OVCAR-8 ovarian) was > 100 µM and the GI50 (PC-3 prostate) was 74.7 µM. For the same compound, the TGI (PC-3 prostate) was > 100 µM, the GI50 (RPMI-8226 leukemia) was > 100 µM and the TGI (RPMI-8226 leukemia) was > 100 µM. The GI50 (RXF 393 renal) was > 100 µM, the TGI (RXF 393 renal) was > 100 µM and the GI50 (SF-268 CNS) was > 100 µM. The TGI (SF-268 CNS) was > 100 µM, the GI50 (SF-295 CNS) was > 100 µM and the TGI (SF-295 CNS) was > 100 µM. For the same compound, the GI50 (SF-539 CNS) was > 100 µM, the TGI (SF-539 CNS) was > 100 µM and the GI50 (SK-MEL-2 melanoma) was > 100 µM. For the same compound, the TGI (SK-MEL-2 melanoma) was > 100 µM, the GI50 (SK-MEL-28 melanoma) was > 100 µM and the TGI (SK-MEL-28 melanoma) was > 100 µM. For the same compound, the GI50 (SK-MEL-5 melanoma) was 94.7 µM, the TGI (SK-MEL-5 melanoma) was > 100 µM and the GI50 (SK-OV-3 ovarian) was > 100 µM. For the same compound, the TGI (SK-OV-3 ovarian) was > 100 µM, the GI50 (SN12C renal) was 67.8 µM and the TGI (SN12C renal) was > 100 µM. For the same compound, the GI50 (SNB-19 CNS) was > 100 µM, the TGI (SNB-19 CNS) was > 100 µM and the GI50 (SNB-75 CNS) was > 100 µM. The TGI (SNB-75 CNS) was > 100 µM, the GI50 (SR leukemia) was 34.4 µM and the TGI (SR leukemia) was > 100 µM. The GI50 (SW-620 colon) was 63.2 µM, the TGI (SW-620 colon) was > 100 µM and the GI50 (T-47D breast) was > 100 µM. For the same compound, the TGI (T-47D breast) was > 100 µM, the GI50 (TK-10 renal) was 10.6 µM and the TGI (TK-10 renal) was > 100 µM. The GI50 (U251 CNS) was 50.3 µM, the TGI (U251 CNS) was > 100 µM and the GI50 (UACC-257 melanoma) was > 100 µM. The TGI (UACC-257 melanoma) was > 100 µM, the GI50 (UACC-62 melanoma) was 34.1 µM and the TGI (UACC-62 melanoma) was > 100 µM. For the same compound, the GI50 (UO-31 renal) was 26.1 µM and the TGI (UO-31 renal) was > 100 µM.
